Laboratory results: patent publication US8933235B2, “Pyridinedione carboxamide inhibitors of endothelial lipase” (Bristol-Myers Squibb Company, priority 2011, dated 2015)

The compounds below were run against T1, endothelial lipase (EL) (Homo sapiens, UniProt Q9Y5X9) (assay: Endothelial lipase (EL) enzymatic assay with fluorescent substrate A10070 in DMPG vesicles). Details: conditioned media from HT-1080 cells overexpressing endogenous EL; 20 min preincubation at 37° C.; read-out: HLE_EL_CRC IC50.
T1 construct: Conditioned media obtained from HT-1080 cells, which were transformed by RAGE technology (Athersys) to overexpress endogenous EL; endogenous in cells; conditioned medium used as the enzyme source
T1 sequence (Q9Y5X9 21-500): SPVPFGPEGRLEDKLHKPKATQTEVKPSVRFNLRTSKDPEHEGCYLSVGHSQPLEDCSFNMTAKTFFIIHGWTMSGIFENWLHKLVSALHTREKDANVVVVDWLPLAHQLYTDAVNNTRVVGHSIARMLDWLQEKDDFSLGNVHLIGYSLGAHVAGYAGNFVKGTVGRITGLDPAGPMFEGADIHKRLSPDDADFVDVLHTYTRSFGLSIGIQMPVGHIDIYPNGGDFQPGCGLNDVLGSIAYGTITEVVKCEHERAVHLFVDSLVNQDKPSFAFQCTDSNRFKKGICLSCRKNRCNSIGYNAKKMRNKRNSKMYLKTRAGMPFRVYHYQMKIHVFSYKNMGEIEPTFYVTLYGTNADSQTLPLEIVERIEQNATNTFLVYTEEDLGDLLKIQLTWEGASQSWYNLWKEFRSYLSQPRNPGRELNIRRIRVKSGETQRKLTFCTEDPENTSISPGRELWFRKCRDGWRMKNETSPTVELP
Assay type: biochemical
Experimental: Endothelial lipase activity was measured using a fluorescent substrate, A10070, (Invitrogen, CA) doped into an artificial vesicle containing DMPG (Avanti Polar Lipids) as the excipient. Vesicles were prepared by combining 285 uL of 1 mM DMPG in a 1:1 mixture of MeOH and CHCl3 with 15 uL of 1 mM A10070 in a 1:1 mixture of MeOH and CHCl3. The mixture was dried under nitrogen and resuspended in 150 uL of 50 mM HEPES pH 8.0 buffer containing 100 mM NaCl and 0.2 mM EDTA. The sample was allowed to sit at rt for 15 min and then was sonicated 3×4 mins on ice with a Branson Sonicator using duty cycle 1. This preparation provides vesicles with a mole fraction of 0.05 for the FRET substrate.
The enzymatic assay was measured using white, opaque 96-well half area plates. Each well contained 60 uL of assay buffer (50 mM HEPES pH 8.0, 50 mM NaCl and 1 mM CaCl2) and 2 ul of a DMSO solution containing compound of interest. Conditioned media obtained from HT-1080 cells, which were transformed by RAGE technology (Athersys) to overexpress endogenous EL, was added and the reaction was allowed to incubate for 20 min at 37° C. with gentle agitation. The reaction was started by the addition of 20 uL of a 1:4 dilution of vesicles. The final total reaction volume was 100 uL. The reaction rates were measured on a Gemini plate reader with an excitation wavelength of 488 nm and a emission of 530 nm. Readings were taken every 20 seconds for 10 min with agitation between each reading. The slope of the linear portion of the readout was used to calculate the rate of the reaction.
COc1ccc(CNc2c(C(=O)NCCCc3ccc(Cl)c(Cl)c3)ccn(C)c2=O)cc1 [Example 186, (3-(3,4-dichlorophenyl)propyl)-3-(4-methoxybenzylamino)-1-methyl-2-oxo-1,2-dihydropyridine-4-carboxamide] showed an IC50 of 172 nM. For CC(C)CNc1c(C(=O)NCCCc2ccc(Cl)c(Cl)c2)ccn(C)c1=O [Example 188, N-(3-(3,4-dichlorophenyl)propyl)-3-(isobutylamino)-1-methyl-2-oxo-1,2-dihydropyridine-4-carboxamide], the IC50 was 200 nM. In the case of CC(C)OCCNc1c(C(=O)NCCCc2ccc(Cl)c(Cl)c2)ccn(C)c1=O [Example 189, N-(3-(3,4-dichlorophenyl)propyl)-3-(2-isopropoxyethylamino)-1-methyl-2-oxo-1,2-dihydropyridine-4-carboxamide], the IC50 is reported as 210 nM. Cn1ccc(C(=O)NCCCOc2ccc(Cl)c(Cl)c2)c(O)c1=O [Example 194, N-(3-(3,4-dichlorophenoxy)propyl)-3-hydroxy-1-methyl-2-oxo-1,2-dihydropyridine-4-carboxamide] showed an IC50 of 210 nM. In the case of COC(=O)c1cccc(OCCCNC(=O)c2ccn(C)c(=O)c2O)c1 [Example 198, methyl 3-(3-(3-hydroxy-1-methyl-2-oxo-1,2-dihydropyridine-4-carboxamido)propoxy)benzoate], the IC50 is reported as 182 nM.
